In patent US20250235543A1, “MODIFIED PROTEINS AND PROTEIN DEGRADERS” (Cullgen (Shanghai), Inc., priority 2021, published 2025):
Where two headings read alike, the source gives them in different places.

Key:
[1] = molecular target: T1, CDK4 (Homo sapiens, UniProt P11802); experiment: CDK4 percentage degradation in Calu-1 cells (immunoblotting); format: cell-based; settings: read-out: CDK4 Degradation (200 nM)
T1 construct: endogenous in cells; host or cells: Calu-1
Outline: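 Cultured cells were rinsed once in cold PBS and lysed in cold RIPA buffer containing protease and phosphatase inhibitors, with gentle agitation at 4° C. for 30 min. Lysates were centrifuged at 13,000 rpm for 10 min at 4° C., and protein was quantified by BCA. Samples were then separated by SDS-PAGE, detected with ECL, and the CDK4 bands quantified in Image Lab.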

[2] = system: cyclin D1; experiment: Cyclin D1 percentage degradation in Calu-1 cells (immunoblotting); format: cell-based; settings: 200 nM, 16 hours
Outline: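 Cells were rinsed once in cold PBS and lysed in cold RIPA buffer containing protease and phosphatase inhibitors, with gentle agitation at 4° C. for 30 min. Lysates were spun at 13,000 rpm for 10 min at 4° C., protein was measured by BCA, and samples were boiled in Laemmli buffer at 99° C. for 5 min before SDS-PAGE immunoblotting.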

T1 sequence (P11802 2-303 limits assumed): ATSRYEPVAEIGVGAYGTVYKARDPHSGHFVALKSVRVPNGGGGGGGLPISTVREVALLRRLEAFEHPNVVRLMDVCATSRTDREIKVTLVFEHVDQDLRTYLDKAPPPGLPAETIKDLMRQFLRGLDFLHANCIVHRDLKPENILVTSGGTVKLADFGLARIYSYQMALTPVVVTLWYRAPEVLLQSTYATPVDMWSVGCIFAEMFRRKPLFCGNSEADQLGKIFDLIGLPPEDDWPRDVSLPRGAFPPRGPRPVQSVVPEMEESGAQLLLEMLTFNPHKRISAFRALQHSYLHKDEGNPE
T1 sequence (P24385 whole entry partner): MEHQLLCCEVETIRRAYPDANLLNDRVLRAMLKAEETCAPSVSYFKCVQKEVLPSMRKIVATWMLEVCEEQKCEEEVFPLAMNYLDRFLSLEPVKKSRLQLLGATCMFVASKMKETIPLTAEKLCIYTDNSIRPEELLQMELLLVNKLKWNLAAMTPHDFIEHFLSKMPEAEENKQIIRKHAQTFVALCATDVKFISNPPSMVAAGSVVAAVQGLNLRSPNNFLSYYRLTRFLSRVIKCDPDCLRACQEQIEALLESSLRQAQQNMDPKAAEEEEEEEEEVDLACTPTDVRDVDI
T1 sequence (Q16531 2-1140 limits assumed, further chain): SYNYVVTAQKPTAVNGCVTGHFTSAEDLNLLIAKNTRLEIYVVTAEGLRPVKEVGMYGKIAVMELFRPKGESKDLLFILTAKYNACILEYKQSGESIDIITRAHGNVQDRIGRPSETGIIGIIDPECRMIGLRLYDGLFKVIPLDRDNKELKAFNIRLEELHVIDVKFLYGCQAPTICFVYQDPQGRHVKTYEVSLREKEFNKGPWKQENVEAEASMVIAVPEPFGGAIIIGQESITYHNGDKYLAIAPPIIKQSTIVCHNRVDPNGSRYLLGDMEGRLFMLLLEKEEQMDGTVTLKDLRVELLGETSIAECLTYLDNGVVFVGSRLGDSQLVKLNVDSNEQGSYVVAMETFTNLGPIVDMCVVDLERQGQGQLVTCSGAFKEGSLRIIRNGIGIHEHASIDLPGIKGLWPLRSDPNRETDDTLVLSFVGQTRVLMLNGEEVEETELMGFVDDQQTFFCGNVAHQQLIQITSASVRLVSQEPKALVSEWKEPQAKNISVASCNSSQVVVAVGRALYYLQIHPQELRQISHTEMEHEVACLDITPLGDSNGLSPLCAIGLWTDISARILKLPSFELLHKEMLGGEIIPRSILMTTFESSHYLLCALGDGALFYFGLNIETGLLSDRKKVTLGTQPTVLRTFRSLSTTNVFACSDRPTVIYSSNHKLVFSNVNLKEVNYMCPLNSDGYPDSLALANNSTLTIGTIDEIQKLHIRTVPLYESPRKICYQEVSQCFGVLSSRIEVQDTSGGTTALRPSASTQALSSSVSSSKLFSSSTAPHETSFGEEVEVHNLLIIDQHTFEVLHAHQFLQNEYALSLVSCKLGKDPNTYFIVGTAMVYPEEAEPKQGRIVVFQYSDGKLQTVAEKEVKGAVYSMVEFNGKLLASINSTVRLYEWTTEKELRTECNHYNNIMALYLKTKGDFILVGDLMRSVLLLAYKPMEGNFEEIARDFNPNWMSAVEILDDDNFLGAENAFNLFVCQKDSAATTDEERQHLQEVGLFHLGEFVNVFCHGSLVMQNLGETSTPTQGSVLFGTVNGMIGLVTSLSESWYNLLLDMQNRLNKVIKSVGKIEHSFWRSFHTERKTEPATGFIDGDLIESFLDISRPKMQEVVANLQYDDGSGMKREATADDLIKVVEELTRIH

Row | inhibition at 0.2 µM ([1]; Calu-1 cells, 200 nM, 16 hours) | Compound | CyclinD1 Degradation (200 nM) [2] | inhibition at 0.2 µM ([1]; Calu-1, 16 h)
1 | < 30% | CC(=O)c1c(C)c2cnc(Nc3ccc(N4CCN(CC(=O)NCCOCCOCCC(=O)Nc5ccccc5C(=O)Nc5cc(C6CC6)n(C)n5)CC4)cn3)nc2n(C2CCCC2)c1=O [CPD-079, 2-(3-(2-(2-(2-(4-(6-((6-Acetyl-8-cyclopentyl-5-methyl-7-oxo-7,8-dihydropyrido[2,3-d]pyrimidin-2-yl)amino)pyridin-3-yl)piperazin-1-yl)acetamido)ethoxy)ethoxy)propanamido)-N-(5-cyclopropyl-1-methyl-1H-pyrazol-3-yl)benzamide] | D (protein percentage degradation <30%) | 
2 | < 30% | CC(=O)c1c(C)c2cnc(Nc3ccc(N4CCN(CC(=O)NCCOCCOCCC(=O)Nc5ccccc5C(=O)Nc5nc(C6CCN(C)CC6)c(C)s5)CC4)cn3)nc2n(C2CCCC2)c1=O [CPD-080, 2-(3-(2-(2-(2-(4-(6-((6-Acetyl-8-cyclopentyl-5-methyl-7-oxo-7,8-dihydropyrido[2,3-d]pyrimidin-2-yl)amino)pyridin-3-yl)piperazin-1-yl)acetamido)ethoxy)ethoxy)propanamido)-N-(5-methyl-4-(1-methylpiperidin-4-yl)thiazol-2-yl)benzamide] | D (protein percentage degradation <30%) | 
3 | 50 to 80% | CC(=O)c1c(C)c2cnc(Nc3ccc(N4CCN(CC(=O)NCCOCCOCCC(=O)Nc5ccccc5C(=O)Nc5ccc(C#N)cn5)CC4)cn3)nc2n(C2CCCC2)c1=O [CPD-083, 2-(3-(2-(2-(2-(4-(6-((6-Acetyl-8-cyclopentyl-5-methyl-7-oxo-7,8-dihydropyrido[2,3-d]pyrimidin-2-yl)amino)pyridin-3-yl)piperazin-1-yl)acetamido)ethoxy)ethoxy)propanamido)-N-(5-cyanopyridin-2-yl)benzamide] | A (protein percentage degradation >=80%) | 
4 | 50 to 80% | CC(=O)c1c(C)c2cnc(Nc3ccc(N4CCN(CC(=O)NCCOCCOCCC(=O)Nc5ccccc5C(=O)Nc5ccc(C(F)(F)F)cn5)CC4)cn3)nc2n(C2CCCC2)c1=O [CPD-084, 2-(3-(2-(2-(2-(4-(6-((6-Acetyl-8-cyclopentyl-5-methyl-7-oxo-7,8-dihydropyrido[2,3-d]pyrimidin-2-yl)amino)pyridin-3-yl)piperazin-1-yl)acetamido)ethoxy)ethoxy)propanamido)-N-(5-(trifluoromethyl)pyridin-2-yl)benzamide] | A (protein percentage degradation >=80%) | 
5 | > 80% | COc1ccc(NC(=O)c2ccccc2NC(=O)CCOCCOCCNC(=O)CN2CCN(c3ccc(Nc4ncc5c(C)c(C(C)=O)c(=O)n(C6CCCC6)c5n4)nc3)CC2)nn1 [CPD-085, 2-(3-(2-(2-(2-(4-(6-((6-Acetyl-8-cyclopentyl-5-methyl-7-oxo-7,8-dihydropyrido[2,3-d]pyrimidin-2-yl)amino)pyridin-3-yl)piperazin-1-yl)acetamido)ethoxy)ethoxy)propanamido)-N-(6-methoxypyridazin-3-yl)benzamide] | A (protein percentage degradation >=80%) | 
6 | 50 to 80% | CC(=O)c1c(C)c2cnc(Nc3ccc(N4CCN(CC(=O)NCCOCCOCCNc5ccc(C)c(C(=O)Nc6nc(C)c(C)s6)c5)CC4)cn3)nc2n(C2CCCC2)c1=O [CPD-089, 5-((2-(2-(2-(2-(4-(6-((6-Acetyl-8-cyclopentyl-5-methyl-7-oxo-7,8-dihydropyrido[2,3-d]pyrimidin-2-yl)amino)pyridin-3-yl)piperazin-1-yl)acetamido)ethoxy)ethoxy)ethyl)amino)-N-(4,5-dimethylthiazol-2-yl)-2-methylbenzamide] | B (protein percentage degradation <80%, and >=50%) | 
7 | < 30% | CC(=O)c1c(C)c2cnc(Nc3ccc(N4CCN(CC(=O)NCCNc5ccc(C)c(C(=O)Nc6nc(C)c(C)s6)c5)CC4)cn3)nc2n(C2CCCC2)c1=O [CPD-093, 5-((2-(2-(4-(6-((6-Acetyl-8-cyclopentyl-5-methyl-7-oxo-7,8-dihydropyrido[2,3-d]pyrimidin-2-yl)amino)pyridin-3-yl)piperazin-1-yl)acetamido)ethyl)amino)-N-(4,5-dimethylthiazol-2-yl)-2-methylbenzamide] | D (protein percentage degradation <30%) | 
8 | < 30% | CC(=O)c1c(C)c2cnc(Nc3ccc(N4CCN(CC(=O)NCCCCCCNc5ccc(C)c(C(=O)Nc6nc(C)c(C)s6)c5)CC4)cn3)nc2n(C2CCCC2)c1=O [CPD-094, 5-((6-(2-(4-(6-((6-Acetyl-8-cyclopentyl-5-methyl-7-oxo-7,8-dihydropyrido[2,3-d]pyrimidin-2-yl)amino)pyridin-3-yl)piperazin-1-yl)acetamido)hexyl)amino)-N-(4,5-dimethylthiazol-2-yl)-2-methylbenzamide] | D (protein percentage degradation <30%) | 

Further lines, the molecule ahead of its results:

Row | Compound | inhibition at 0.2 µM ([1]; Calu-1 cells, 200 nM, 16 hours) | CyclinD1 Degradation (200 nM) [2] | inhibition at 0.2 µM ([1]; Calu-1, 16 h)
9 | CC(=O)c1c(C)c2cnc(Nc3ccc(N4CCN(CC(=O)NCCOCCOCCC(=O)Nc5ccccc5C(=O)Nc5ccc(F)cn5)CC4)cn3)nc2n(C2CCCC2)c1=O [CPD-081, 2-(3-(2-(2-(2-(4-(6-((6-Acetyl-8-cyclopentyl-5-methyl-7-oxo-7,8-dihydropyrido[2,3-d]pyrimidin-2-yl)amino)pyridin-3-yl)piperazin-1-yl)acetamido)ethoxy)ethoxy)propanamido)-N-(5-fluoropyridin-2-yl)benzamide] | > 80% | A (protein percentage degradation >=80%) | 
10 | CC(=O)c1c(C)c2cnc(Nc3ccc(N4CCN(CC(=O)NCCOCCOCCC(=O)Nc5ccccc5C(=O)Nc5ccc(Cl)cn5)CC4)cn3)nc2n(C2CCCC2)c1=O [CPD-082, 2-(3-(2-(2-(2-(4-(6-((6-Acetyl-8-cyclopentyl-5-methyl-7-oxo-7,8-dihydropyrido[2,3-d]pyrimidin-2-yl)amino)pyridin-3-yl)piperazin-1-yl)acetamido)ethoxy)ethoxy)propanamido)-N-(5-chloropyridin-2-yl)benzamide] | > 80% | A (protein percentage degradation >=80%) | 
11 | CC(=O)c1c(C)c2cnc(Nc3ccc(N4CCN(CCNCCOCCOCCNc5cccc(C(=O)Nc6nc(C)c(C)s6)c5C)CC4)cn3)nc2n(C2CCCC2)c1=O [CPD-086, 3-((2-(2-(2-((2-(4-(6-((6-Acetyl-8-cyclopentyl-5-methyl-7-oxo-7,8-dihydropyrido[2,3-d]pyrimidin-2-yl)amino)pyridin-3-yl)piperazin-1-yl)ethyl)amino)ethoxy)ethoxy)ethyl)amino)-N-(4,5-dimethylthiazol-2-yl)-2-methylbenzamide] |  | D (protein percentage degradation <30%) | < 30%
12 | CC(=O)c1c(C)c2cnc(Nc3ccc(N4CCN(CC(=O)NCCCNc5ccc(C)c(C(=O)Nc6nc(C)c(C)s6)c5)CC4)cn3)nc2n(C2CCCC2)c1=O [CPD-087, 5-((3-(2-(4-(6-((6-Acetyl-8-cyclopentyl-5-methyl-7-oxo-7,8-dihydropyrido[2,3-d]pyrimidin-2-yl)amino)pyridin-3-yl)piperazin-1-yl)acetamido)propyl)amino)-N-(4,5-dimethylthiazol-2-yl)-2-methylbenzamide] | < 30% | D (protein percentage degradation <30%) | 
13 | CC(=O)c1c(C)c2cnc(Nc3ccc(N4CCN(CC(=O)NCCCCNc5ccc(C)c(C(=O)Nc6nc(C)c(C)s6)c5)CC4)cn3)nc2n(C2CCCC2)c1=O [CPD-088, 5-((4-(2-(4-(6-((6-Acetyl-8-cyclopentyl-5-methyl-7-oxo-7,8-dihydropyrido[2,3-d]pyrimidin-2-yl)amino)pyridin-3-yl)piperazin-1-yl)acetamido)butyl)amino)-N-(4,5-dimethylthiazol-2-yl)-2-methylbenzamide] | < 30% | D (protein percentage degradation <30%) | 
14 | CC(=O)c1c(C)c2cnc(Nc3ccc(N4CCN(CC(=O)NCCCCCCCCNc5cccc(C(=O)Nc6nc(C)c(C)s6)c5C)CC4)cn3)nc2n(C2CCCC2)c1=O [CPD-090, 3-((8-(2-(4-(6-((6-Acetyl-8-cyclopentyl-5-methyl-7-oxo-7,8-dihydropyrido[2,3-d]pyrimidin-2-yl)amino)pyridin-3-yl)piperazin-1-yl)acetamido)octyl)amino)-N-(4,5-dimethylthiazol-2-yl)-2-methylbenzamide] | 50 to 80% | A (protein percentage degradation >=80%) | 
15 | CC(=O)c1c(C)c2cnc(Nc3ccc(N4CCN(C(=O)CCNc5ccc(C)c(C(=O)Nc6nc(C)c(C)s6)c5)CC4)cn3)nc2n(C2CCCC2)c1=O [CPD-091, 5-((3-(4-(6-((6-Acetyl-8-cyclopentyl-5-methyl-7-oxo-7,8-dihydropyrido[2,3-d]pyrimidin-2-yl)amino)pyridin-3-yl)piperazin-1-yl)-3-oxopropyl)amino)-N-(4,5-dimethylthiazol-2-yl)-2-methylbenzamide] |  | D (protein percentage degradation <30%) | < 30%
16 | CC(=O)c1c(C)c2cnc(Nc3ccc(N4CCN(CC(=O)NCCNc5cccc(C(=O)Nc6nc(C)c(C)s6)c5C)CC4)cn3)nc2n(C2CCCC2)c1=O [CPD-092, 3-((2-(2-(4-(6-((6-Acetyl-8-cyclopentyl-5-methyl-7-oxo-7,8-dihydropyrido[2,3-d]pyrimidin-2-yl)amino)pyridin-3-yl)piperazin-1-yl)acetamido)ethyl)amino)-N-(4,5-dimethylthiazol-2-yl)-2-methylbenzamide] | < 30% | D (protein percentage degradation <30%) | 
